DBAASP
In brackets after ≈: the same amount, converted by molar mass.

Legend:
Assay in all cases: ≥ marks a high value that may be exact or a test limit, other limits are often not marked, values filed in µg/mL are converted to µM
[1] = system: Candida albicans ATCC 10231
[2] = system: Pseudomonas aeruginosa ATCC 15442
Staphylococcus aureus MR = system: Staphylococcus aureus MR
[3] = system: Escherichia coli ATCC 25922
[4] = system: Staphylococcus aureus ATCC 25923
[5] = system: Staphylococcus aureus ATCC 43300
[6] = system: Bacillus subtilis ATCC 6633
[7] = system: Pseudomonas aeruginosa PAO1
Escherichia coli D31 = system: Escherichia coli D31
[8] = system: Streptococcus mutans ATCC 25175
[9] = system: Staphylococcus aureus FDA 209P
[10] = system: Cryptococcus neoformans ATCC 208821
[11] = system: Pseudomonas aeruginosa ATCC 27853
[12] = system: Candida albicans ATCC 90028
[13] = system: Klebsiella pneumoniae ATCC 700603
[14] = system: Acinetobacter baumannii ATCC 19606
[15] = system: Staphylococcus aureus SH1000
[16] = system: Bacillus anthracis Sterne 34F2
[17] = system: Bacillus subtilis var. niger ATCC 9372
Escherichia coli K91BK = system: Escherichia coli K91BK
Salmonella sp. = system: Salmonella sp.
[18] = system: Salmonella enterica subsp. enterica serovar Enteritidis
Yersinia enterocolitica = system: Yersinia enterocolitica
Escherichia coli = system: Escherichia coli
[19] = system: Staphylococcus aureus ATCC 29213
Escherichia coli O111 = system: Escherichia coli O111

SMILES: CC[C@H](C)[C@H](NC(=O)[C@H](CCCCN)NC(=O)[C@H](CCC(N)=O)NC(=O)[C@H](CC(C)C)NC(=O)[C@@H](N)Cc1ccccc1)C(=O)N[C@H](C(=O)NCC(=O)N[C@@H](C)C(=O)N[C@@H](CC(C)C)C(=O)NCC(=O)N[C@@H](Cc1cnc[nH]1)C(=O)N[C@@H](CC(C)C)C(=O)N[C@@H](Cc1ccccc1)C(N)=O)[C@@H](C)CC [FLQKIIGALGHLF]
- MIC [1]: > 100 µM
- MIC [2]: 6.2 µM (≈ 9.03 µg/mL)
- MIC (Staphylococcus aureus MR): 12.5 µM (≈ 18.2 µg/mL)
- MIC [3]: 12.5 µM (≈ 18.2 µg/mL)
- MIC [4]: 3.1 µM (≈ 4.51 µg/mL)
- MIC [5]: 6.2 µM (≈ 9.03 µg/mL)
- MIC [6]: ≥ 100 µM
- MIC [7]: > 100 µM
- MIC (Escherichia coli D31): ≥ 100 µM
- MIC [8]: 6.2 µM (≈ 9.03 µg/mL)

SMILES: CC[C@H](C)[C@H](NC(=O)CN)C(=O)N[C@@H](Cc1ccccc1)C(=O)N[C@H](C(=O)N[C@@H](CC(C)C)C(=O)N[C@@H](Cc1ccccc1)C(=O)N[C@@H](CCCCN)C(=O)NCC(=O)N[C@@H](C)C(=O)N[C@@H](C)C(=O)N[C@@H](CCCCN)C(=O)N[C@@H](CC(C)C)C(=O)N[C@@H](CC(C)C)C(=O)NCC(=O)N[C@@H](CCCCN)C(=O)N[C@H](C(=O)N[C@@H](CC(C)C)C(=O)N[C@@H](C)C(=O)N[C@@H](CCCCN)C(=O)N[C@@H](CCC(=O)O)C(=O)N[C@@H](C)C(=O)NCC(=O)N[C@@H](CCCCN)C(=O)N[C@H](C(=O)NCC(=O)N[C@@H](CC(C)C)C(=O)N[C@@H](CCC(=O)O)C(=O)N[C@@H](CC(C)C)C(=O)N[C@@H](CCSC)C(=O)N[C@@H](C)C(=O)N[C@H]1CSSC[C@@H](C(=O)O)NC(=O)[C@H](CCC(N)=O)NC(=O)[C@H](CC(N)=O)NC(=O)[C@H]([C@@H](C)O)NC(=O)[C@H](C(C)C)NC(=O)[C@H](CCCCN)NC1=O)[C@@H](C)O)[C@@H](C)O)[C@@H](C)O [GIFTLFKGAAKLLGKTLAKEAGKTGLELMACKVTNQC]
- MIC [3]: 2.8 µM (≈ 10.8 µg/mL)
- MIC [9]: 4.4 µM (≈ 17 µg/mL)

SMILES: CC[C@H](C)[C@H](NC(=O)[C@H](CC(=O)O)NC(=O)[C@H](Cc1ccccc1)NC(=O)[C@H](CC(C)C)NC(=O)CN)C(=O)N[C@H](C(=O)N[C@@H](CCCCN)C(=O)N[C@@H](CCCCN)C(=O)N[C@H](C(=O)N[C@@H](CC(C)C)C(=O)N[C@@H](CCCCN)C(=O)N[C@@H](CC(C)C)C(=O)N[C@@H](CC(C)C)C(=O)N[C@@H](CCCCN)C(N)=O)C(C)C)C(C)C [GLFDIVKKVLKLLK]
- MIC [10]: 20 µM (≈ 32.3 µg/mL)
- MIC [11]: > 20 µM
- MIC [3]: > 20 µM
- MIC [5]: > 20 µM
- MIC [12]: 20 µM (≈ 32.3 µg/mL)
- MIC [13]: > 20 µM
- MIC [14]: > 20 µM
- MIC [15]: 3.3 µM (≈ 5.32 µg/mL)

SMILES: CC[C@H](C)[C@H](NC(=O)[C@H](CC(=O)O)NC(=O)[C@H](Cc1ccccc1)NC(=O)[C@H](CC(C)C)NC(=O)CN)C(=O)N[C@H](C(=O)N[C@@H](CCCCN)C(=O)N[C@@H](CCCCN)C(=O)N[C@H](C(=O)N[C@H](C(=O)NCC(=O)N[C@@H](C)C(=O)N[C@@H](CC(C)C)C(=O)N[C@@H](CCCCN)C(N)=O)C(C)C)C(C)C)C(C)C [GLFDIVKKVVGALK]
- MIC [10]: 22 µM (≈ 32.7 µg/mL)
- MIC [11]: > 22 µM
- MIC [3]: > 22 µM
- MIC [5]: > 22 µM
- MIC [12]: 22 µM (≈ 32.7 µg/mL)
- MIC [13]: > 22 µM
- MIC [14]: > 22 µM
- MIC [15]: ≥ 33 µM

SMILES: CC(=O)N[C@@H](CCCCN)C(=O)N[C@@H](CCCCN)C(=O)N[C@@H](Cc1c[nH]c2ccccc12)C(=O)N[C@@H](CCCCN)C(=O)N[C@@H](CCCCN)C(=O)N[C@@H](Cc1c[nH]c2ccccc12)C(=O)N[C@@H](CCCCN)C(=O)N[C@@H](CCCCN)C(=O)N[C@@H](Cc1c[nH]c2ccccc12)C(=O)N[C@@H](CCCCN)C(=O)N[C@@H](CCCCN)C(N)=O [KKWKKWKKWKK]
- MIC [16]: ≥ 100 µM
- MIC [17]: ≥ 50 µM
- MIC (Escherichia coli K91BK): ≥ 100 µM

SMILES: CC[C@H](C)[C@H](NC(=O)[C@H](CC(N)=O)NC(=O)[C@H](CCCCN)NC(C)=O)C(=O)N[C@@H](CCCN=C(N)N)C(=O)N[C@@H](CCCN=C(N)N)C(=O)N[C@H](C(=O)N[C@H](C(=O)N[C@@H](CCCN=C(N)N)C(=O)N[C@@H](CCCCN)C(=O)N[C@H](C(=O)N[C@H](C(=O)N[C@@H](Cc1cnc[nH]1)C(=O)N[C@H](C(=O)N[C@H](C(=O)N[C@@H](CCCCN)C(=O)N[C@@H](CCCCN)C(=O)N[C@@H](Cc1ccc(O)cc1)C(=O)NCC(N)=O)[C@@H](C)CC)[C@@H](C)CC)[C@@H](C)CC)[C@@H](C)CC)[C@@H](C)CC)[C@@H](C)CC [KNIRRIIRKIIHIIKKYG]
- MIC [16]: 6.25 µM (≈ 14.4 µg/mL)
- MIC [17]: 0.93 µM (≈ 2.14 µg/mL)
- MIC (Escherichia coli K91BK): ≥ 100 µM

SMILES: CC[C@H](C)[C@H](NC(=O)[C@H](CCC(N)=O)NC(=O)[C@@H](N)CCCN=C(N)N)C(=O)N[C@H](C(=O)N[C@@H](CCCN=C(N)N)C(=O)N[C@@H](CCCN=C(N)N)C(=O)N[C@@H](CCSC)C(=O)N[C@@H](CCC(N)=O)C(=O)N[C@@H](CCCN=C(N)N)C(N)=O)[C@@H](C)CC [RQIIRRMQR]
- MIC [3]: > 39.8 µM
- MIC (Salmonella sp.): ≥ 39.8 µM
- MIC [5]: > 39.8 µM
- MIC [18]: ≥ 39.8 µM
- MIC (Yersinia enterocolitica): ≥ 39.8 µM
- MIC (Escherichia coli): > 39.8 µM
- MIC [19]: > 39.8 µM

SMILES: CC[C@H](C)[C@H](NC(=O)[C@H](CCCCN)NC(=O)[C@@H]1CCCN1C(=O)[C@H](CCC(N)=O)NC(=O)[C@@H](N)CCCN=C(N)N)C(=O)N1CCC[C@H]1C(=O)N[C@@H](CCCN=C(N)N)C(=O)N[C@@H](CCSC)C(=O)N1CCC[C@H]1C(=O)N[C@@H](Cc1c[nH]c2ccccc12)C(=O)N[C@@H](CCCN=C(N)N)C(N)=O [RQPKIPRMPWR]
- MIC [3]: > 34.1 µM
- MIC (Salmonella sp.): ≥ 34.1 µM
- MIC [5]: > 34.1 µM
- MIC [18]: ≥ 34.1 µM
- MIC (Yersinia enterocolitica): ≥ 34.1 µM
- MIC (Escherichia coli): > 34.1 µM
- MIC [19]: > 34.1 µM

SMILES: CC[C@H](C)[C@H](NC(=O)CNC(=O)[C@H](CCC(=O)O)NC(=O)[C@H](Cc1c[nH]c2ccccc12)NC(=O)[C@@H](NC(=O)[C@@H](N)CO)[C@@H](C)CC)C(=O)N[C@@H](CCCCN)C(=O)N[C@@H](CC(N)=O)C(=O)N[C@@H](C)C(=O)NCC(=O)N[C@@H](CCCCN)C(=O)NCC(=O)N[C@@H](Cc1ccccc1)C(=O)N[C@@H](CC(C)C)C(=O)N[C@H](C(=O)N[C@@H](CO)C(=O)N[C@H](C(=O)N[C@@H](CC(C)C)C(=O)N[C@@H](CC(=O)O)C(=O)N[C@@H](CCCCN)C(=O)N[C@H](C(=O)N[C@@H](CCCN=C(N)N)C(=O)N[C@H]1CSSC[C@@H](C(=O)N[C@@H](CC(N)=O)C(=O)N2CCC[C@H]2C(=O)O)NC(=O)CNC(=O)CNC(=O)[C@H](C)NC(=O)[C@H](C(C)C)NC(=O)[C@H](CCCCN)NC1=O)C(C)C)[C@@H](C)CC)C(C)C [SIWEGIKNAGKGFLVSILDKVRCKVAGGCNP]
- MIC [3]: 3.01 µM (≈ 9.79 µg/mL)
- MIC [6]: 19.6 µM (≈ 64 µg/mL)
- MIC [9]: 3.01 µM (≈ 9.79 µg/mL)
- MIC (Escherichia coli O111): 6.01 µM (≈ 19.6 µg/mL)
